Here are results for 1 substance from patent publication US20040126359A1, “Hedgehog” (priority 2001, published 2004).

The test system of test [1] is CD4+ T-cells. Description: Cell cycle analysis (propidium iodide, Vindelov method). Format: cell-based, mouse. As for the experimental part:
CD4^+ T-cells were cultured in RPMI 1640 medium (Life Technologies, Paisley, UK) supplemented with 10% FCS (Life Technologies), 2 mM L-glutamine, (Sigma, Dorset, UK), 20 μg/ml penicillin/streptomycin (Life Technologies) and […] 2-mercaptoethanol (Sigma). Anti-CD3/28 antibody activation was carried out at 2 concentrations, namely ‘sub-optimal’ (anti-CD3 at 0.25 μg/ml and anti-CD28 at 0.1 μg/ml) and ‘optimal’ (anti-CD3 at 1 μg/ml and anti-CD28 at 5 μg/ml). Tissue culture plates (Corning Inc., NY, USA) were coated with the anti-CD3 antibody for 90 min at 37° C. prior to addition of the CD4^+ T-cells. Recombinant mouse Shh amino-terminal peptide (R&D systems Europe Ltd, Abingdon, UK) was added into cultures at a concentration of 500 ng/ml. 5E1 antibody was used at either 20 μg/ml or 50 μg/ml and the isotype control was used at 20 μg/ml. The concentrations used were based on results of dose response curves (data not shown).
(§1) The CD4^+ T-cells were cultured as above in 48-well plates with and without addition of exogenous Shh or 5E1. At 72 hr post-activation, the cells were spun at 13,000 rpm for 7 min then re-suspended in citrate buffer. Cell cycle analysis was carried out using the Vindelov method (Vindelov et al, 1990). Briefly, the cells were trypsinized (Sigma) to expose the nucleus before being stained with propidium iodide (Sigma). Cell cycle analysis was then performed on an Epics© XL flow cytometer (Beckman Coulter UK Ltd, Bucks, UK). The machine counted 30,000 nuclei in each sample and the software analysed the % of cells in each stage of the cell cycle sub-G1, G1, S phase and G2/M. From these figures, the % of live cells (G1, S and G2/M) was calculated, and from this, the % of live cells in G1 and S/G2 phases.
The effect of Shh on CD4^+ T-cell proliferation was investigated further using cell cycle analysis to allow us to examine if Shh affected cell survival or promoted entry in the S/G2 proliferative phase of the cell cycle. As with the ^3H-TdR incorporation studies, this analysis was carried out on resting CD4^+ T-cells and those optimally and sub-optimally activated. Exogenous Shh was added at the time of (t=0) or 24 hr before (t=−24 hr) anti-CD3/28 antibody activation and the T-cells were analysed 72 hr later. In the case of resting CD4^+ T-cells, Shh peptide was added at t=0, and the cells were analysed at 24 hr, 48 hr and 72 hrs. The % cells distributed in sub-G1, G1, S and G2 phases of the cell cycle was analysed, and from this the % live cells in G1 and S/G2 phases was calculated.

The subject of test [2] is CD4+ T-cells. Description: Taqman real time PCR of Shh, Ihh, HIP and Ptc expression in CD4+ T-cells (FIGS. 14, 15, 17). It is filed as cell-based. The method, then:
Expression in medium, in the presence of 50 ng/ml IL-10 and in the presence of 50 ng/ml IFN-γ was compared to expression in resting CD4+ T-cells;
Similar experiments were used to study the expression of Shh (FIG. 4) and Ptc (FIG. 5) in T-cells and the expression of components of the Hh signalling pathway in lymphoid tissues (FIG. 6). FIG. 14 illustrates the results of an RT-PCR analysis of Shh, Ihh, Hip and Ptc expression. Activation of T-cells induced a sustained and marked (approximately 80-fold) increase in Shh mRNA, peaking at 44 and 72 hours. It lead to a downregulation of Ptc.
Background: Quantitative PCR measures a nucleic acid by following its amplification.

Test [3] relates to CD4+ T-cells. Description: Two-colour FACS analysis of CD69 and CD25 expression. It is filed as cell-based. To be noted: CD4+ T-cells activated 72 hours with anti-CD3 and anti-CD28, Shh 100 ng/ml. A general note: In flow cytometry, cells or beads pass a laser one at a time.
For test [4], the system named is mouse spleen cells and purified CD4+ T-cells. The experiment in a line: Survival in culture by Trypan blue staining. Format: cell-based. The note with it: no activation; Shh 10 and 100 ng/ml; 4 day time frame. As for the experimental part: Survival was measured by Trypan blue staining of dead and alive cells in culture;
Cells cultured in medium without Shh were used as controls;

In a further test the test system is Gli2-/Gli3- mice cells. The experiment in a line: Cell cycle / survival analysis in Gli2-/Gli3- mice cells. It is filed as cell-based, mouse. To be noted: Shh 10 and 500 ng/ml. As for the experimental part: Cell survival was measured in Gli2^−/Gli3^− mice cells (i.e. from mice in which one allele each of Gli2 and Gli3 were deleted from the genome) in the presence (10 ng/ml and 500 ng/ml) and absence of Shh;
as §1

Setting [5] is: optimally activated, Shh 24 hr prior to activation.
Setting [6] is: sub-optimally activated, Shh peptide at t=0.
Where [7] appears, read: Shh added to activated T-cell cultures.

On to “Shh peptide: Recombinant mouse Shh amino-terminal peptide (R&D systems); biologically active N-terminal Sonic hedgehog fragment”, for which the “effect on cell cycle progression, direct addition on its own” value with CD4+ T-cells [1] (FIG. 13, Shh 10 and 500 ng/ml, relative to the anti-Shh effect) is given as “slight effect in the opposite direction”. The “% increase in live cells in S/G2 phase, range” value in the test with CD4+ T-cells [1] (optimally activated (anti-CD3 1 μg/ml, anti-CD28 5 μg/ml), Shh at t=0, 72 hr) is given as 9%-144%; with CD4+ T-cells [1] (setting [6]) it was 27.8%-77.8%. The “% of live cells with and without Shh” value is “very similar” in the test on CD4+ T-cells [1] (setting [5]) and “very similar” in the test with CD4+ T-cells [1] (optimally activated, Shh at t=0). Also, the “increase in cells in S/G2 phase, range” value with CD4+ T-cells [1] (setting [5]) is 53.1%-97.1%. Further, the “increase in cells in S/G2 phase, mean” value in the test with CD4+ T-cells [1] (optimally activated, Shh 24 hr prior to activation, n=3, p<0.01) was 71.5%. For the same substance, the “% increase in live cells in S/G2 phase, mean” value with CD4+ T-cells [1] (optimally activated, Shh at t=0, n=3, not statistically significant) is given as 63.7%; in the test with CD4+ T-cells [1] (sub-optimally activated, Shh peptide at t=0, n=3, p<0.02), 55.8%. Further, in the test with CD4+ T-cells [1] (resting CD4+ T-cells, Shh 500 ng/ml), the “difference in % of cells in S/G2 phase” value is recorded as “negligible”. Besides, the “effect on cell survival” value with CD4+ T-cells [1] (resting CD4+ T-cells, Shh 500 ng/ml, 24, 48, 72 hr) is “minimal effects”. The “increase in % of live cells entering S/G2 phase, range” value with CD4+ T-cells [1] (sub-optimally activated, Shh peptide 24 hr prior to activation) is 34.6%-110%. In addition, the “increase in % of live cells entering S/G2 phase, mean” value in the test with CD4+ T-cells [1] (sub-optimally activated, Shh peptide 24 hr prior to activation, n=3, p<0.03) came out at 61.5%. In the test with CD4+ T-cells [1] (sub-optimally activated, Shh peptide 24 hr prior to activation, p<0.02), the “% of live CD4+ T-cells” value is listed as “increase”. Besides, the “% live cells with and without Shh” value in the test on CD4+ T-cells [1] (setting [6]) is on record as “similar”. Besides, the Hip expression entry with CD4+ T-cells [2] (setting [7]) is “up-regulated”. Also, in the test on CD4+ T-cells [2] (setting [7]), the Ihh expression result is reported as “down-”. Also, the “effect on Ptc downregulation” value in the test with CD4+ T-cells [2] (activated T-cells, Shh addition) is “does not appear to affect”. Besides, the “Shh mRNA expression” value with CD4+ T-cells [2] (activated T-cells, Shh addition, 24 hours, 40 cycles of PCR (limit of assay)) is recorded as “no signal is detected”. In addition, the “CD25 expression in CD3 positive T-cells” value with CD4+ T-cells [3] (activated only 31.64%) is reported as 80.46%. In addition, the “CD69 expression in CD3 positive T-cells” value in the test on CD4+ T-cells [3] (activated only 33.87%) was 70.57%. In test [4], the survival in culture result was “enhances their survival”. Further, the “effect on survival / apoptosis (live cells, sub-G1 pool)” value in the test with Gli2-/Gli3- mice cells was “promotes apoptosis”.
